Columns and labels:
[1] = biological target: Serine/threonine-protein kinase 24 (Homo sapiens) (UniProt Q9Y6E0); test: Inhibition of human STK24 at 1.82 nM by HotSpot assay relative to control
[2] = biological target: Dual specificity tyrosine-phosphorylation-regulated kinase 1A (Homo sapiens) (UniProt Q13627); test: Inhibition of human DYRK1 at 1.82 nM by HotSpot assay relative to control
[3] = biological target: Serine/threonine-protein kinase pim-1 (Homo sapiens) (UniProt P11309); test: Inhibition of human PIM1 at 1.82 nM by HotSpot assay relative to control
[4] = biological target: Mitogen-activated protein kinase kinase kinase 11 (Homo sapiens) (UniProt Q16584); test: Inhibition of human MAP3K11 at 1.82 nM by HotSpot assay relative to control
[5] = biological target: Mitogen-activated protein kinase 8 (Homo sapiens) (UniProt P45983); test: Inhibition of human JNK1 at 1.82 nM by HotSpot assay relative to control
[6] = biological target: T1, Testis-specific serine/threonine-protein kinase 2 (Homo sapiens) (UniProt Q96PF2); test: Inhibition of human TSSK2 at 18.6 nM by HotSpot assay relative to control
T1 sequence (whole entry): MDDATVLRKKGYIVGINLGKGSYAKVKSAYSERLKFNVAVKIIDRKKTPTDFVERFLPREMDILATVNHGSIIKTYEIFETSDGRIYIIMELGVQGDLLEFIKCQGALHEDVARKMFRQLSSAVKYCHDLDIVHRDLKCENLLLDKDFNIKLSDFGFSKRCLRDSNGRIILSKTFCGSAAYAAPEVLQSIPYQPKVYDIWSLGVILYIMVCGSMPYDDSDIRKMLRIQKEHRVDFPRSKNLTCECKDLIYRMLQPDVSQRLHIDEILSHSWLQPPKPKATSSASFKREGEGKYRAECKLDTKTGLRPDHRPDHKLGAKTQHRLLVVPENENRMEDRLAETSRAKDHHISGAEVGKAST

[7] = biological target: T2, Serine/threonine-protein kinase TAO1 (Homo sapiens) (UniProt Q7L7X3); test: Inhibition of human TAOK1 at 18.6 nM by HotSpot assay relative to control
T2 sequence (whole entry): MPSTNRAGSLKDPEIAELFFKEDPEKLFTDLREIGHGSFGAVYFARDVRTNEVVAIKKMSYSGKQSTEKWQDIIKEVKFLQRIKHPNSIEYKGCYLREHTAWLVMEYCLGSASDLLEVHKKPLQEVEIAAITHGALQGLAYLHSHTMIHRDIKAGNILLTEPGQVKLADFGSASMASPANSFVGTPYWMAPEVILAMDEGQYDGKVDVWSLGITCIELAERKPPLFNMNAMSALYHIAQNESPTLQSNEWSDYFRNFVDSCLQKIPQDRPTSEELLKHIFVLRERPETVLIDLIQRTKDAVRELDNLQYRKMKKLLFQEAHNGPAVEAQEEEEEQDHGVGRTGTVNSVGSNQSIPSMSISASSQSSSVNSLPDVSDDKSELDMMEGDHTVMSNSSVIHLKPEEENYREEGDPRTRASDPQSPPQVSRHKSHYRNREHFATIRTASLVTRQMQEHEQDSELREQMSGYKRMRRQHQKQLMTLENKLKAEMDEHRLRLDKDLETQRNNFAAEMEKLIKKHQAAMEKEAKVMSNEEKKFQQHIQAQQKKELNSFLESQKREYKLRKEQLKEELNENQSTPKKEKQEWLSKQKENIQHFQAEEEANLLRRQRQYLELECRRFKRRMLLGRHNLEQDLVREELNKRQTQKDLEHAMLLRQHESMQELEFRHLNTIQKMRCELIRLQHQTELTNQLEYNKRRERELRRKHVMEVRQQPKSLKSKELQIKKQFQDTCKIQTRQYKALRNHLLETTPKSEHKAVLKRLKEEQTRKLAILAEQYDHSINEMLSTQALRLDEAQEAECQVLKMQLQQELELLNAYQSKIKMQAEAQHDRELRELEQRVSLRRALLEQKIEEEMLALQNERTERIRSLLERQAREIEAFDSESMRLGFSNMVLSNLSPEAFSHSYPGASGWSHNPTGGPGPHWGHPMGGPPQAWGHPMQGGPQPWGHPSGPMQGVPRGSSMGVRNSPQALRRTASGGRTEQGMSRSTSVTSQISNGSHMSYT

[8] = biological target: T3, Tyrosine-protein kinase ZAP-70 (Homo sapiens) (UniProt P43403); test: Inhibition of human ZAP70 at 18.6 nM by HotSpot assay relative to control
T3 sequence (whole entry): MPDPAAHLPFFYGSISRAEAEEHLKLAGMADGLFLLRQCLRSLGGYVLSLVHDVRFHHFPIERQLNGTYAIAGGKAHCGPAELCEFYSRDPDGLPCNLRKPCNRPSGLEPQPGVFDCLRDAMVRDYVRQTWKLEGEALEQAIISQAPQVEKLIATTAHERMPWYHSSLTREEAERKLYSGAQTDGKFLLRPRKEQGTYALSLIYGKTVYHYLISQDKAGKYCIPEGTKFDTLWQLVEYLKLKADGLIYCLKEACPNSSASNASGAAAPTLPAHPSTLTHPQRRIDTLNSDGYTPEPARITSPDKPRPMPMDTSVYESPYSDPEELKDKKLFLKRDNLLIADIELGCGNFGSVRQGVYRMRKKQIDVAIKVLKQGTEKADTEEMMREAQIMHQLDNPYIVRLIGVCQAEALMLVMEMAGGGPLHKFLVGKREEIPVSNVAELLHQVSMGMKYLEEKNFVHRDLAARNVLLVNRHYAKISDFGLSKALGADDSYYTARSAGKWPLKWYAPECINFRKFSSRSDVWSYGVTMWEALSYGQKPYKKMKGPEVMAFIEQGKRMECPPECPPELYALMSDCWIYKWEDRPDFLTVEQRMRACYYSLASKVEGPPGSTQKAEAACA

[9] = biological target: Maternal embryonic leucine zipper kinase (Homo sapiens) (UniProt Q14680); test: Inhibition of human MELK at 18.6 nM by HotSpot assay relative to control
[10] = biological target: Macrophage-stimulating protein receptor (Homo sapiens) (UniProt Q04912); test: Inhibition of human MST1R at 18.6 nM by HotSpot assay relative to control
Macrophage-stimulating protein receptor (Homo sapiens), sequence (Q04912 25-304 limits assumed): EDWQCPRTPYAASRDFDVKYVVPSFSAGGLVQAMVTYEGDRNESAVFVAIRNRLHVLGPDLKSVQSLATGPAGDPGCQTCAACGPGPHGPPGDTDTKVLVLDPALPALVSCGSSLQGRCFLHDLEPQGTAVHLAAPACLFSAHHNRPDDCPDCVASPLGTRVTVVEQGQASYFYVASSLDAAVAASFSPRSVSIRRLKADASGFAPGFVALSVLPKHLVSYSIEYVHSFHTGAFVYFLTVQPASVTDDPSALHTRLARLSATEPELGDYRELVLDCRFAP
Macrophage-stimulating protein receptor (Homo sapiens), sequence (Q04912 310-1400 limits assumed): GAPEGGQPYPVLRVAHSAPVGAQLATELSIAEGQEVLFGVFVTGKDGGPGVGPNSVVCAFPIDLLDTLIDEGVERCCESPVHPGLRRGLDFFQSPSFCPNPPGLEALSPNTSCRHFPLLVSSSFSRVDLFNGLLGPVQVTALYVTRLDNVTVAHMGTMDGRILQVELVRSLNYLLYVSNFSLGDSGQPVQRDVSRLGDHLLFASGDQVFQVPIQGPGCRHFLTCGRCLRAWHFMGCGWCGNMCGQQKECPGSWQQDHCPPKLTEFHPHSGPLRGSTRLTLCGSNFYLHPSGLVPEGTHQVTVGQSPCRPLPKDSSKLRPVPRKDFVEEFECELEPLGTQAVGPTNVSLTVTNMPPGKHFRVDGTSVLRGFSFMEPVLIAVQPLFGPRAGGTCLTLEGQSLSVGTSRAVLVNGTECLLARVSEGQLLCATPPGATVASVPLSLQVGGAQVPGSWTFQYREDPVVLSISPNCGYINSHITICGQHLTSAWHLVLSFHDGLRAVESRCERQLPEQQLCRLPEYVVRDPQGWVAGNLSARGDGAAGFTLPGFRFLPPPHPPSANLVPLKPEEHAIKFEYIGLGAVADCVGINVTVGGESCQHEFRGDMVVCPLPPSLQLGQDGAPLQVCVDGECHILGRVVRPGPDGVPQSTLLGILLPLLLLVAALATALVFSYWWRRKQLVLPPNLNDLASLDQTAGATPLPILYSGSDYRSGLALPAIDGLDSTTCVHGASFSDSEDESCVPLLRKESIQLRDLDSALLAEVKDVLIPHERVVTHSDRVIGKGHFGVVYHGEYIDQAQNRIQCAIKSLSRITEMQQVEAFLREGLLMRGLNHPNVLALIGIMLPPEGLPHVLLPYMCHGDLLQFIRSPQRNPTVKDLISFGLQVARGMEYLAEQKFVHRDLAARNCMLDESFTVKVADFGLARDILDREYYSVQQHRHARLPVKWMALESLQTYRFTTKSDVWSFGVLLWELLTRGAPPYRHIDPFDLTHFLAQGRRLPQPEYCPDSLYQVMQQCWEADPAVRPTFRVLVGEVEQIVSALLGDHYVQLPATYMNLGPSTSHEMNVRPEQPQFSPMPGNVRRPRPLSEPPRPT

Serine/threonine-protein kinase 24 (Homo sapiens), sequence (Q9Y6E0 whole entry, looked up): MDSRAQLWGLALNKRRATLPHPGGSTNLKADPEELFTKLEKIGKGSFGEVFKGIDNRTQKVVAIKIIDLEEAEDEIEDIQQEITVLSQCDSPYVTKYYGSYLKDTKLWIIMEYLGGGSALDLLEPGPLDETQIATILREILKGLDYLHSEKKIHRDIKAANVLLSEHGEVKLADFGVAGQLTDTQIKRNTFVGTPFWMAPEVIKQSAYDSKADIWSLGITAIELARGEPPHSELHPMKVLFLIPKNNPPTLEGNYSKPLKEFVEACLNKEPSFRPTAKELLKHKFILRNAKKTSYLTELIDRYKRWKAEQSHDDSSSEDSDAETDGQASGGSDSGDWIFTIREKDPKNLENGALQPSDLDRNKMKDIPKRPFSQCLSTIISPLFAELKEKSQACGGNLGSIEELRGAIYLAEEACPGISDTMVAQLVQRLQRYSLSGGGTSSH
Serine/threonine-protein kinase pim-1 (Homo sapiens), sequence (P11309 whole entry, looked up): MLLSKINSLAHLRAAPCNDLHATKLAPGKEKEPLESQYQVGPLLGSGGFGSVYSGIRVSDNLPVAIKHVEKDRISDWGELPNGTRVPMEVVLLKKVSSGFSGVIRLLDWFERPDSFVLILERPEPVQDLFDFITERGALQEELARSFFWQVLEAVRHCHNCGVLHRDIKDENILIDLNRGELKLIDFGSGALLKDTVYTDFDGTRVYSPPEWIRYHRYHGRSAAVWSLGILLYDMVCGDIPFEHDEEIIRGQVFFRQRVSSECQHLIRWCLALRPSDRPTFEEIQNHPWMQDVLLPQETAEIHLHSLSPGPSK
Mitogen-activated protein kinase 8 (Homo sapiens), sequence (P45983 whole entry): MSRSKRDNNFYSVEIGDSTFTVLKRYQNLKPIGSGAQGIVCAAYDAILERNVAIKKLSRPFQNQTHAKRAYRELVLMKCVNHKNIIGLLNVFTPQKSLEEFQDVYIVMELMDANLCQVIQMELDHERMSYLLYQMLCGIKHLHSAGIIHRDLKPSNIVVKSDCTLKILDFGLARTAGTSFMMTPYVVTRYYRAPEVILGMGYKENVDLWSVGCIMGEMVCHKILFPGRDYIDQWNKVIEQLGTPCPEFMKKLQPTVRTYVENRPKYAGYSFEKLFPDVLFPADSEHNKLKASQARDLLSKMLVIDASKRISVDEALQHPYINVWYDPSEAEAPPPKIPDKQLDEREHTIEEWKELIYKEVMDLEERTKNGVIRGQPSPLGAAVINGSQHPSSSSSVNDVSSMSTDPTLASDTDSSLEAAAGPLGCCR
Mitogen-activated protein kinase kinase kinase 11 (Homo sapiens), sequence (Q16584 whole entry, looked up): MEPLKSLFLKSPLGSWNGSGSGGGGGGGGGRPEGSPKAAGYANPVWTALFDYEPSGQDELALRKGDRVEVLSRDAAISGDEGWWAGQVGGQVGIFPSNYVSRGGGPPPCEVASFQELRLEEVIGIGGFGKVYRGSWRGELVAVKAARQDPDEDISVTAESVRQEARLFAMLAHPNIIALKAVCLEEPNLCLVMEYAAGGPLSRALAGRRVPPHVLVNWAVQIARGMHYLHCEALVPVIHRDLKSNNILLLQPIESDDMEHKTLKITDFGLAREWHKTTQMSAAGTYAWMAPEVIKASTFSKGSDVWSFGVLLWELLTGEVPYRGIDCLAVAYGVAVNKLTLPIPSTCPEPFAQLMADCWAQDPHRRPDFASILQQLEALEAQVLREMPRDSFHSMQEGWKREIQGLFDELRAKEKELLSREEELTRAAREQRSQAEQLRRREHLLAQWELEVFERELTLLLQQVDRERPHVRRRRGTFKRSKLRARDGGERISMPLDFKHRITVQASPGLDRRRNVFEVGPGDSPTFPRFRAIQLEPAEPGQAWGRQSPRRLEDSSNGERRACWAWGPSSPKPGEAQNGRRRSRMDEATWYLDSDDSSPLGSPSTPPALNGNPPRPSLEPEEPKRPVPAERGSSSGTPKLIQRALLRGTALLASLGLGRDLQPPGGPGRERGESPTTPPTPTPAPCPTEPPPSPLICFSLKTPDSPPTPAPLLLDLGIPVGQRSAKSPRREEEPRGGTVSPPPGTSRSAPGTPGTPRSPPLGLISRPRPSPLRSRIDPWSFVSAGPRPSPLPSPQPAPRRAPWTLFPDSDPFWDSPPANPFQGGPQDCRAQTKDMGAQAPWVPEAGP
Maternal embryonic leucine zipper kinase (Homo sapiens), sequence (Q14680 whole entry, looked up): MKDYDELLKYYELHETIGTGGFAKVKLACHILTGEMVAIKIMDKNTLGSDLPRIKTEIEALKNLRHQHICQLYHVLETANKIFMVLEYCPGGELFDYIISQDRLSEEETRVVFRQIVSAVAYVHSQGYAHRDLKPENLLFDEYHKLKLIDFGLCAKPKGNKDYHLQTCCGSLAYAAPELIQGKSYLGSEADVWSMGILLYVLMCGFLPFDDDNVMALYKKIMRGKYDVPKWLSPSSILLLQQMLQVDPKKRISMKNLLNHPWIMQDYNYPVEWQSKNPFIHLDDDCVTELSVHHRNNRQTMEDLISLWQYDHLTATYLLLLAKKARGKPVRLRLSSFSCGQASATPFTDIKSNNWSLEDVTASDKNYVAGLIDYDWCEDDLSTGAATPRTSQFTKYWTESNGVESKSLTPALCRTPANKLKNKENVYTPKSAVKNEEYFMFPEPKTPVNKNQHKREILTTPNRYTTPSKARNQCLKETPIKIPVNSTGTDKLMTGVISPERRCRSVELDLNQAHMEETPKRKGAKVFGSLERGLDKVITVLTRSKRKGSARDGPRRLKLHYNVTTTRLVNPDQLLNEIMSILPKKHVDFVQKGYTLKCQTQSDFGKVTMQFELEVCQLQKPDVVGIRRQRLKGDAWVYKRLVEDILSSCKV

Row | Compound | inhibition [1] [%] | inhibition [2] [%] | inhibition [3] [%] | inhibition [4] [%] | inhibition [5] [%] | inhibition [6] [%] | inhibition [7] [%] | inhibition [8] [%] | inhibition [9] [%] | inhibition [10] [%]
1 | C[C@@]1(C(=O)Nc2ccc(F)nc2)CCCN1c1nc(Nc2cc(C3CC3)n[nH]2)c2cccn2n1 | 2.42 | -3.18 | -5.96 | 2.47 | -1.19 | – | – | – | – | –
2 | C[C@]1(O)C[C@@H](c2nc(-c3ccc4ccc(-c5ccccc5)nc4c3)c3c(N)nccn32)C1 | – | – | – | – | – | -3.7 | 0.77 | -3.52 | -2.08 | 0.1

Reference: ChEMBL document CHEMBL5653615 (J Biol Chem, 2013)
